Test results taken from US20240190849A1, “AMINOPYRIMIDINE COMPOUNDS AND METHODS OF THEIR USE” (TYRA BIOSCIENCES, INC., priority 2021, published 2024).

Tests used:
Settings in all cases: FGFR binding data
FGFR1 = biological target: T1, FGFR1 (Homo sapiens, UniProt P11362); test: Kinase binding assay (kinase-tagged T7 phage, affinity beads, qPCR readout), FGFR1
T1 construct: made in house; host or cells: E. coli derived from BL21, infected with T7 phage
Protocol: (§1) Kinase-tagged T7 phage strains were prepared in an E. coli host derived from the BL21 strain. E. coli were grown to log-phase and infected with T7 phage and incubated with shaking at 32° C. until lysis. The lysates were centrifuged and filtered to remove cell debris. Streptavidin-coated magnetic beads were treated with biotinylated small molecule ligands for 30 minutes at room temperature to generate affinity resins for kinase assays. The liganded beads were blocked with excess biotin and washed with blocking buffer SeaBlock (Pierce), 1% BSA, 0.05% Tween 20, 1 mM DTT to remove unbound ligand and to reduce non-specific binding. Binding reactions were assembled by combining kinases, liganded affinity beads, and test compounds in 1× binding buffer (20% SeaBlock, 0.17×PBS, 0.05% Tween 20, 6 mM DTT).
(§2) Test compounds were prepared as 111× stocks in 100% DMSO. Kds were determined using an 11-point 3-fold compound dilution series with three DMSO control points. All compounds for Kd measurements are distributed by acoustic transfer (non-contact dispensing) in 100% DMSO. The compounds were then diluted directly into the assays such that the final concentration of DMSO was 0.9%. All reactions performed in polypropylene 384-well plate. Each was a final volume of 0.02 ml. The assay plates were incubated at room temperature with shaking for 1 hour and the affinity beads were washed with wash buffer (1×PBS, 0.05% Tween 20). The beads were then re-suspended in elution buffer (1×PBS, 0.05% Tween 20, 0.5 μM non-biotinylated affinity ligand) and incubated at room temperature with shaking for 30 minutes. The kinase concentration in the eluates was measured by qPCR.
(§3) Binding constants were calculated with a standard dose-response curve using the Hill equation: […]
(§4) The Hill Slope was set to −1. Curves were fitted using a non-linear least square fit with the Levenberg-Marquardt algorithm.

FGFR2 = biological target: T2, FGFR2 (Homo sapiens, UniProt P21802); test: Kinase binding assay (kinase-tagged T7 phage, affinity beads, qPCR readout), FGFR2
T2 construct: made in house; host or cells: E. coli derived from BL21, infected with T7 phage
T2 sequence (P21802 22-821): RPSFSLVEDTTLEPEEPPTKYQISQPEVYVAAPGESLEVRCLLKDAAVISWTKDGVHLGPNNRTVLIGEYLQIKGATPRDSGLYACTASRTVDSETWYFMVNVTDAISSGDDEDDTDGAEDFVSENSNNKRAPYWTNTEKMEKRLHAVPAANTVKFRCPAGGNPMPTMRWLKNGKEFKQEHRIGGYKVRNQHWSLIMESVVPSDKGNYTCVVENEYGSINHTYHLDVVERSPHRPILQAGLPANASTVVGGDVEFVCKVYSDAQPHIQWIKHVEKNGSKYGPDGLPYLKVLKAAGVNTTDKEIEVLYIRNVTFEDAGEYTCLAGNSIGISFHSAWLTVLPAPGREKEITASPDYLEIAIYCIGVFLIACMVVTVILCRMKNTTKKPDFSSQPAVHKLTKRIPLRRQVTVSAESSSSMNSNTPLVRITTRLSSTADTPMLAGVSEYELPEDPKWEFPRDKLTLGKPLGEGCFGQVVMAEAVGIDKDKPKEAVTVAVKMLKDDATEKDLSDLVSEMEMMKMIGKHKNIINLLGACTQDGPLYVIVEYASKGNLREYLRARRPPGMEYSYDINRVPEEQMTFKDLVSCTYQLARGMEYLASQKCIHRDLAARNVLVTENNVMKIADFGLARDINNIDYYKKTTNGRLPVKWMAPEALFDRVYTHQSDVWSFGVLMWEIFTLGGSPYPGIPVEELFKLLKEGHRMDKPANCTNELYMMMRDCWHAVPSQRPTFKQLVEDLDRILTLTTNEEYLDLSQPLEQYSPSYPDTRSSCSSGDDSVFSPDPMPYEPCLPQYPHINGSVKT
Protocol: as §1, §2, §3, §4

FGFR3 = biological target: T3, FGFR3 (Homo sapiens, UniProt P22607); test: Kinase binding assay (kinase-tagged T7 phage, affinity beads, qPCR readout), FGFR3
T3 construct: made in house; host or cells: E. coli derived from BL21, infected with T7 phage
T3 sequence (P22607 23-806): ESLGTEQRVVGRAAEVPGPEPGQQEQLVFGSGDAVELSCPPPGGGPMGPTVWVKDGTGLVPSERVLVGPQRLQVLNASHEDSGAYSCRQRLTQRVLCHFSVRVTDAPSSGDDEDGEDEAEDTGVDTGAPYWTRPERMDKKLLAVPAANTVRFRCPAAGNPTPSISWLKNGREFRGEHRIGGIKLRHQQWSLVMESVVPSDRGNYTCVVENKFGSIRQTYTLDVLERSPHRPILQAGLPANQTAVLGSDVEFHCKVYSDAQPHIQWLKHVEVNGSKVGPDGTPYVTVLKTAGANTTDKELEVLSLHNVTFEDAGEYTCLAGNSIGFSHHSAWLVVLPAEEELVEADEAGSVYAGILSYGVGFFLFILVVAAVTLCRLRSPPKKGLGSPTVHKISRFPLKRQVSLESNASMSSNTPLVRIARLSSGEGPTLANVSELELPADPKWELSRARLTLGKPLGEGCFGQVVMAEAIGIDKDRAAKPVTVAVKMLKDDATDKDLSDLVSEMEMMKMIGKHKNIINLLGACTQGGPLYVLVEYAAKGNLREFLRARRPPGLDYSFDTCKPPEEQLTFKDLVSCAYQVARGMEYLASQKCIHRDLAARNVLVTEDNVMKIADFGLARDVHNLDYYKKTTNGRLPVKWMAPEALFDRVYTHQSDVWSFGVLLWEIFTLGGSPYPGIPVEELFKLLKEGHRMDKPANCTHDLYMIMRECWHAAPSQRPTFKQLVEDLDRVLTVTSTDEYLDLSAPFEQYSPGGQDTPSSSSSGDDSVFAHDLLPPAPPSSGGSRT
Protocol: as §1, §2, §3, §4

FGFR3 (V555M) = biological target: T4, FGFR3 (V555M) (Homo sapiens, UniProt P22607, V555M); test: Kinase binding assay (kinase-tagged T7 phage, affinity beads, qPCR readout), FGFR3 (V555M)
T4 construct: made in house; host or cells: E. coli derived from BL21, infected with T7 phage
T4 sequence (P22607 23-806 V555M): as the sequence (P22607 23-806) above, with V533M counted along it
Protocol: as §1, §2, §3, §4

T1 sequence (P11362 22-822): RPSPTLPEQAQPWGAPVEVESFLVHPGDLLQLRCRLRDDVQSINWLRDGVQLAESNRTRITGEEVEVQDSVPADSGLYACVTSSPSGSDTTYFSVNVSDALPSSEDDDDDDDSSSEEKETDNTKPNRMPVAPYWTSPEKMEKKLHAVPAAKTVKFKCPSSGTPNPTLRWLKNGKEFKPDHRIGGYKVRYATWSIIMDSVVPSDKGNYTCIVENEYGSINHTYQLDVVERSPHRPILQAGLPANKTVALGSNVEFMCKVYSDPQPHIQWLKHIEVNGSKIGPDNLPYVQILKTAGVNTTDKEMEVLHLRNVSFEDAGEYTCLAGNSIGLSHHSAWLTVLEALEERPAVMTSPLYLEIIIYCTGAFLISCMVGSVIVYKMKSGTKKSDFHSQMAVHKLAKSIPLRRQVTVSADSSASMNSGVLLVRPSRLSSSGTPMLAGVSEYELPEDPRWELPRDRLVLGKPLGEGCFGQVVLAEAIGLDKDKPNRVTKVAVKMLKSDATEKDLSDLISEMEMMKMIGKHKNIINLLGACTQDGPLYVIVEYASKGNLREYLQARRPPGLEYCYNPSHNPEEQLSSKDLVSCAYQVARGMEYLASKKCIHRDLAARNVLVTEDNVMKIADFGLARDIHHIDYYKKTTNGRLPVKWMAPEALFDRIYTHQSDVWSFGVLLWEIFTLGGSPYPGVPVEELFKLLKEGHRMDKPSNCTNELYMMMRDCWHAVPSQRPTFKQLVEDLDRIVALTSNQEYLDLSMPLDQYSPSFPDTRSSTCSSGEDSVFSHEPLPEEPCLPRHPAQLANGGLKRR

Kd (FGFR1) | Kd (FGFR2) | Kd (FGFR3) | Kd (FGFR3 (V555M)) | SMILES
250 to 1000 nM | > 1000 nM | 100 to 250 nM | 0.1 to 100 nM | C=CC(=O)Nc1ccc2c(ccn2-c2nc(Nc3cn(C)nc3OC)ncc2Cl)c1 [Example 12, N-[1-[5-chloro-2-[(3-methoxy-1-methyl-pyrazol-4-yl)amino]-pyrimidin-4-yl]indol-5-yl]prop-2-enamide]
> 1000 nM | > 1000 nM | > 1000 nM | > 1000 nM | C=CC(=O)Nc1ccc2c(c1)c(C)cn2-c1nc(Nc2c(C)cccc2OCC)ncc1C#N [Example 33, N-[1-[5-cyano-2-(2-ethoxy-6-methyl-anilino)pyrimidin-4-yl]-3-methyl-indol-5-yl]prop-2-enamide]
> 1000 nM | > 1000 nM | > 1000 nM | 250 to 1000 nM | C=C(F)C(=O)Nc1ccc2c(c1)c(C)cn2-c1nc(Nc2ccnn2C)ncc1C [Example 110, 2-fluoro-N-[3-methyl-1-[5-methyl-2-[(2-methylpyrazol-3-yl)amino]pyrimidin-4-yl]indol-5-yl]prop-2-enamide]
0.1 to 100 nM | 0.1 to 100 nM | 0.1 to 100 nM | 0.1 to 100 nM | C=CC(=O)Nc1ccc2c(-c3nc(Nc4ccc(N(C)CCN(C)C)c(OC)c4)ncc3Cl)cn(C)c2c1 [Example 58, N-[3-[5-chloro-2-[4-[2-(dimethylamino)ethyl-methyl-amino]-3-methoxy-anilino]-pyrimidin-4-yl]-1-methyl-indol-6-yl]prop-2-enamide]
0.1 to 100 nM | 0.1 to 100 nM | 0.1 to 100 nM | 0.1 to 100 nM | C=CC(=O)Nc1ccc2c(c1)c(C)cn2-c1nc(Nc2cccc(N3CCN(C)CC3)c2)ncc1Cl [Example 73, N-[1-[5-chloro-2-[3-(4-methylpiperazin-1-yl)anilino]-pyrimidin-4-yl]-3-methyl-indol-5-yl]prop-2-enamide]
100 to 250 nM | 100 to 250 nM | 0.1 to 100 nM | 100 to 250 nM | CCn1cc(Nc2ncc(F)c(-n3cc(C)c4cc(NC(=O)/C=C/CN(C)C)cnc43)n2)c(C)n1 [Example 171, (E)-4-(dimethylamino)-N-[1-[2-[(1-ethyl-3-methyl-pyrazol-4-yl)amino]-5-fluoro-pyrimidin-4-yl]-3-methyl-pyrrolo[2,3-b]pyridin-5-yl]but-2-enamide]
0.1 to 100 nM | 0.1 to 100 nM | 0.1 to 100 nM | 0.1 to 100 nM | C=CC(=O)Nc1ccc2c(c1)c(C)cn2-c1nc(Nc2cnnn2C)ncc1Cl [Example 72, N-[1-[5-chloro-2-[(3-methyltriazol-4-yl)amino]pyrimidin-4-yl]-3-methyl-indol-5-yl]prop-2-enamide]
250 to 1000 nM | 100 to 250 nM | 0.1 to 100 nM | 0.1 to 100 nM | C=CC(=O)Nc1ccc2c(-c3ccnc(Nc4cn(CC)nc4C)n3)cn(C)c2c1 [Example 173, N-[3-[2-[(1-ethyl-3-methyl-pyrazol-4-yl)amino]pyrimidin-4-yl]-1-methyl-indol-6-yl]prop-2-enamide]
0.1 to 100 nM | 0.1 to 100 nM | 0.1 to 100 nM | 0.1 to 100 nM | C=CC(=O)Nc1cnc2c(c1)c(C)cn2-c1ccnc(Nc2ccn(C)n2)n1 [Example 98, N-[3-methyl-1-[2-[(1-methylpyrazol-3-yl)amino]pyrimidin-4-yl]pyrrolo[2,3-b]pyridin-5-yl]prop-2-enamide]
250 to 1000 nM | 0.1 to 100 nM | 0.1 to 100 nM | 0.1 to 100 nM | C=CC(=O)Nc1ccc2c(-c3nc(Nc4cc(C)nn4C)ncc3Cl)cn(C)c2c1 [Example 63, N-[3-[5-chloro-2-[(2,5-dimethylpyrazol-3-yl)amino]-pyrimidin-4-yl]-1-methyl-indol-6-yl]prop-2-enamide]
0.1 to 100 nM | 0.1 to 100 nM | 0.1 to 100 nM | 0.1 to 100 nM | C=CC(=O)Nc1ccc2c(-c3nc(Nc4ccc(N5CCN(C)CC5)c(OC)c4)ncc3Cl)cn(C)c2c1 [Example 48, N-[3-[5-chloro-2-[3-methoxy-4-(4-methylpiperazin-1-yl)anilino]-pyrimidin-4-yl]-1-methyl-indol-6-yl]prop-2-enamide]
